Source: patent publication US6638974B1, “Ascorbyl esters for the treatment of cancer” (University of South Florida, priority 1999, dated 2003)

What was measured:
Ras (p21) = Ras (p21) expression by Western blot, PANC-1; assay type: cell-based, human; settings: 150 μM, 24 hours
Method: PANC-1 cells were cultured for 24 hours in MEM+10% FBS and treated with 150 μM Asc-S for 24 hours, Asc-S treated and untreated (control). PANC-1 cells were analyzed by Western immunoblotting as follows: Cell lysates of treated and non-treated PANC-1 cells were obtained. The lysates were sonicated, centrifuged and protein concentration was determined with Pierce BCA protein kit (Pierce Laboratories). A 20 μg of protein was loaded and resolved at 4% to 15% polyacrylamide gradient gel by sodium dodecyl sulfate-polyacrylamide gel electrophoresis (SDS-PAGE) and electroblotted onto a nitrocellulose membrane […]. The membrane was immunoblotted with mouse anti-human IGF1-R antibodies to cross-react the 85 kDa β-subunit of the IGF1-R (Pharmingen, San Diego, Calif.) followed by anti-mouse horseradish peroxidase conjugated secondary antibody (ECL, Amersham Corporation, Arlington Heights, Ill.). Antigen bound to nitrocellulose membrane was detected with the ECL system (Amersham Corporation, Arlington Heights, Ill.). P6 cells (3T3 fibroblast cells, transfected with a CVN plasmid constituitively expressing human IGF1-R) were used as the positive control.
Effects of Asc-S on Ras expression in PANC-1 cells: The activation of the IGF1-R induces a cascade of phosphorylations including that of GDP to GTP with activation of the Ras pathway. […]

rat astrocyte cells = assay: Apoptosis by in situ TUNEL assay, rat astrocytes in primary culture; assay type: cell-based; settings: 100 μM, 24 hours, vs untreated astrocytes
Method: Apoptosis by in situ TUNNEL assay: This experiment was designed to test the hypothesis that down regulation of IGF1-R facilitates apoptosis in T98G cells. […] In addition, to test whether Asc-S treatment induces apoptosis in normal cells, rat astrocyte cells in primary culture were treated with 100 μM Asc-S for 24 hours. […] The increased apoptosis in the Asc-S treated T98G cells is due to down regulation of IGF1-R.
In FIG. 10, apoptosis was evaluated by in situ immunohistochemical detection and quantification at a single cell level.

PANC-1 cells = assay: Soft agar colony growth, PANC-1; assay type: cell-based, human; settings: PANC-1, 150 μM Asc-S
Method: Soft agar experiments: To test the hypothesis that treatment of PANC-1 cells in culture with Asc-S reverses their transformed phenotype, the growth of PANC-1 was assessed in soft agar. PANC-1 cells were seeded at a density of 3×10^3/35 mm plate in 10% serum on a top layer of 0.3% agar and a bottom layer of 1% agar with and without the addition of 150 μM of Asc-S for 24 hours. The Asc-S was added to the top layer every day. Colonies greater than 125 microns in diameter (or ten cells) were counted at weekly intervals for 14-21 days. The clonogenicity was determined in three independent experiments comprising six replicates.

c-Src = c-Src expression by Western immunoblot, T98G; assay type: cell-based, human; settings: 100 μM, 24 h
Method: The Src oncogene product was the first to be identified as tyrosine kinase. Today the “Src-family” of non-receptor tyrosine kinases is known to be represented in every cell type and signaling system. […] This observation is further corroborated with the data on the dose and time dependent inhibition of IGF1-R described herein.
The T98G cells are exponentially grown in MEM with 10 nM human recombinant IGF-1 (Bachem California, Torrance, Calif.) or MEM with 10% FBS. The cells were disrupted in cold lysis buffer (10 μM terra sodium pyrophosphate, 20 mM HEPES, 1% Triton X-100, 100 mM NaCl, 2 ug/ml aprotinin, 2 μg/ml leupeptin and 100 μg/ml of PMSF). The crude lysates were centrifuged and protein concentration was determined by using Pierce BCA Protein Assay kit. […] Rabbit anti-human polyclonal primary antibodies to c-Src (pp60^Src (aa403-421) (Upstate Biotechnology, Lake Placid, N.Y.) were incubated for one hour at room temperature in TBST and 1% nonfat milk. The blots were then washed and incubated with anti-rabbit horseradish peroxidase conjugated secondary antibody (Oncogene Science, Inc. Uniondale, N.Y.). Antigen bound to nitrocellulose membrane was detected with the ECL system (Amersham Corp., Arlington Heights, Ill.). FIG. 9A was a positive control for c-Src from A431 cell lysate, FIGS. 9B and C were untreated and 100 μM […] treated T98G cell lysates respectively.

PC-1 cells = assay: MTT cell growth and viability assay, PC-1; assay type: cell-based, hamster; settings: different concentrations of Asc-S, 24 hours
Method: Cell Growth and Vitality: The effect of Asc-S on PANC-1 and PC-1 cell growth and viability was evaluated by 3-(4,5-dimethylthiazol-2yl)-2,5-diphenyl-tetrazoliumbromide (MTT) (Sigma Chemical Co., St. Louis, Md.) assay and the details of the procedure are as described earlier (Naidu et al., 1993a) PANC-1 cells were seeded at 2.5×10^4 viable cells well in 0.1 ml MEM supplemented with 10% FBS or serum free MEM with 15 nM human recombinant IGF-1 in 96 multiwell tissue culture plates. The following day when the cells were nearly confluent, the medium was replaced with fresh medium and 50, 75, 100, 125, 150, 175 and 200 μM Asc-S were added and incubated in a CO2 incubator at 37° C. for 24 hours with respective untreated controls.
The effect of Asc-S on the proliferation of PC-1 and PANC-1 pancreatic tumor cells was studied using MTT assay. The expression of IGF1-R was analyzed by Western blot analysis, using polyclonal IGF1-R antibody (Upstate Biotech). Apoptosis was assessed by in situ hybridization using TUNEL reaction. […] This was associated with significant decrease in IGF1-R expression and increased apoptotic rate as compared to the control. Statistical analysis on the MTT assay was done using Student's T-test.

CCCCCCCCCCCCCCCCCC(=O)OC[C@H](O)[C@H]1OC(=O)C(O)=C1O [Asc-S, Ascorbyl stearate]
Ras (p21) expression, PANC-1 (Ras (p21)): significant inhibition
apoptotic rate (in situ TUNEL), rat astrocytes (rat astrocyte cells): did not increase the apoptotic rate
soft agar colonies, 1st week (PANC-1 cells; 1st week): 0 colonies
soft agar colonies, 2nd week (PANC-1 cells; 2nd week): 15 colonies
soft agar colonies, 3rd week (PANC-1 cells; third week): 50 colonies
c-Src expression, T98G cells (c-Src): did not affect
PC-1 cell proliferation (MTT assay) (PC-1 cells): dose dependent inhibition of PC-1 cell proliferation
